US20230141823A1, “PREBIOTIC AND PROBIOTIC TREATMENT TO REDUCE ORAL DYSBIOSIS AND PROMOTE EUBIOSIS” (FUNDACIÓN PARA EL FOMENTO DE LA INVESTIGACIÓN SANITARIA Y …, priority 2019, published 2023)

Columns and labels:
[1] = tested on: oral biofilms grown from unstimulated saliva
Protocol: BHI medium (Biolife) with an additional 0.05 mg/L haemin, 0.005 mg/L menadione and 0.2 mM vitamin K (all Sigma-Aldrich) was prepared of which 100 pi was added to each well for background impedance measurements. An additional 25 µl of a 65 mM nitrate in water or just water were added to each well of the nitrate or control condition, respectively. Then, 125 pi freshly collected saliva was added, leading to a final concentration of 6.5 mM nitrate in the nitrate condition. The E-Plate 96 was placed in the xCELLigence system inside an incubator at 37° C. Every 10 minutes, a Cell Index measurement was taken. […] For Oh measurements, 1:1 medium and saliva mixtures were used. Then, duplicates of supernatant and biofilm were taken after 5 h and 9 h of growth. The supernatant was sampled and stored at −20° C. until pH, nitrate, nitrite, ammonium and lactate measurements. After this, a PBS washing step was performed and duplicates of biofilms were resuspended together in 200 pi PBS for storage at −20° C. until DNA isolation for sequencing.

[2] = tested on: oral biofilm grown from saliva of donors D2 and D25; test: Effect of isolates on in vitro biofilms: colonization by sequencing; type: cell-based, human; settings: 5 h of growth
Protocol: Six isolates selected as best potential probiotics based on the results from previous experiments were studied in vitro to define the effect of these isolates when they are added to an oral biofilm. These isolates were tested by growing them with saliva of two different donors (D2 and D25 in our database) in a 96-wells plate. For each experiment, there were 4 conditions: control, nitrate (i.e., 6.5 mM nitrate), control+isolate, and nitrate+isolate. […] Then, 100 pL of saliva (or BHI for negative controls) was added and, for the nitrate conditions, 10 pL of nitrate solution 65 mM was added (or 10 pL of BHI for control conditions). Negative controls were added in each experiment: only BHI medium and BHI medium+nitrate. Before being added to the 96-well plate, the isolates were grown for 24 h. Then, 40 pL isolate in BHI solution with OD 1.5 was added (or 40 pL of just BHI in conditions without isolates) to each well. The final concentration of nitrate was 6.5 mM and starting OD of the isolate was 0.24. The 96-well plate was sealed to prevent oxygen presence, and incubated during 5 h 30 min at 37° C. After that, the supernatant was collected, the pellet resuspended in 30 pL of PBS and both stored at −20° C. until measurements were performed. The DNA was extracted and the biofilms were sequenced as described in EXAMPLE 1.

[3] = in vivo; cited from earlier work
[4] = tested on: unstimulated saliva
Protocol: The unstimulated saliva of D25-D33 was used to test the effect of different concentrations of nitrate on a pH drop caused by 0.2% of glucose after 5 h of incubation. For each donor, 187 µl of saliva and 22 µl of glucose (2% diluted in water) was added per well of a standard 96-well plate. Then, 11 pL of water without or with different concentrations of nitrate was added, leading to final concentrations of 0 mM, 0.5 mM, 1 mM, 1.5 mM, 2.5 mM, 3.5 mM, 4.5 mM, 5.5 mM, 6.5 mM, 7.5 mM and 8.5 mM of nitrate. The plate was sealed with adhesive aluminum foil (VWR) and incubated during 5 h at 37° C. After incubation, the samples were stored at −20° C. until pH measurements.
For the nitrate, nitrite, ammonium, lactate and pH measurements, the RQflex® 10 Reflectoquant® (Merck Millipores), a reflectometer that measures the reflection of color changing test strips, was used.

[5] = adult of 60 kg; cited from earlier work
[6] = tested on: biofilms from subgingival plaque of patients with periodontitis
Protocol: In addition to the oral biofilms from healthy individuals provided in EXAMPLE 1, ex vivo experiments with a dysbiotic community (subgingival plaque samples from patients with periodontitis) were performed. Eleven patients diagnosed with periodontitis were enrolled into the study. Subgingival plaque was collected by inserting eight to ten sterile paper points inside the deepest periodontal pockets. The paper points were then transferred to a 2 mL tube containing reduced transport media (RTF) and stored in a cooling box at around 4° C. for max. 18 hours. For the biofilm growth, BHI containing vitamin K and hemin (as described in EXAMPLE 1) was used. Transport medium was removed by centrifugation (1 min, 12000 rpm), followed by resuspension into 1 mL BHI. The xCELLigence system described in EXAMPLE 1 was used. Patient samples were incubated under four different conditions; control, nitrate, control+probiotic and nitrate+probiotic. First, 100 µl of periodontal plaque in BHI was added to the wells. Then, for the nitrate condition, 5 µl of 250 mM nitrate in BHI was added to the wells to obtain a 5 mM nitrate concentration. For the control+probiotic and nitrate+probiotic conditions, 45 pi of R. aeria D1P7 culture of OD (600 nm)=0.417 was added to the wells, resulting in a final OD (600 nm) of 0.075 per well. BHI was added to reach a final volume of 250 pi. A medium control (without patient sample or probiotic) with nitrate (Cntr) was used to determine the initial amounts of nitrate and nitrite in the medium. After 7 hours of incubation, supernatant and biofilm was harvested for nitrate/nitrite measurements and 16S rRNA gene sequencing, respectively (both described in EXAMPLE 1).

[7] = Donor 2, Nitrate condition (6.5 mM)
[8] = Donor 25, Nitrate condition (6.5 mM)

O=[N+]([O-])O [Nitrate, nitrate]
real-time impedance measurements of biofilm growth compared to control biofilms ([1]; 6.5 mM nitrate (403 mg/L)): did not show significant changes
biofilm protein levels compared to control ([1]; 6.5 mM nitrate, 5 h and 9 h): did not differ significantly
R. aeria (%) in biofilm [2, 7]: 0.06%
R. mucilaginosa (%) in biofilm [2, 7]: 2.33%
R. aeria (%) in biofilm [2, 8]: 0.03%
R. mucilaginosa (%) in biofilm [2, 8]: 7.94%
nitrate recycled by the salivary glands into saliva [3]: 25%
nitrate removed from the body by the kidneys into the urine [3]: Around 75%
salivary pH after 5 h compared to 0 mM nitrate ([4]; 0.2% glucose, nitrate 0.5 mM to 8.5 mM): higher pH
nitrate concentrations for which no additional benefits were observed ([4]; after 5 h): above 3.5 mM
nitrate concentrations that prevented salivary acidification due to glucose fermentation ([4]; after 5 h): ≥ 0.5 mM
Acceptable Daily Intake, ADI [5]: 222 mg
mean growth curve of the periodontitis biofilms versus control condition ([6]; 11 patients, 7 h): lower
levels of periodontal pathogens such as Porphyromonas, Eikenella and Tannerella ([6]; 7 hours, versus control): reducing the levels
nitrate reduced after the 7 hours of growth ([6]; periodontal samples (n=11), anaerobic): around 20%
